Results taken from patent US20220096511A1, “ANTIFUNGAL AGENTS WITH IMPROVED WATER SOLUBILITY” (priority 2019, published 2022).
Values after ≈ are worked out from the molar mass of the structure shown. Where two headings read alike, the source gives them in different places.

Experiments:
Aspergillus niger = assay: Minimum inhibitory concentration (MIC) testing, diffusion disc assay; type: cell-based; conditions: for MIC: Aspergillus niger, read-out: Inhibition of Aspergillus niger (MIC)
Protocol: (§1) Minimum inhibitory concentration (MIC) testing was determined for nystatin ethanol amide along with comparative antifungal agents.
(§2) Nystatin (Solid) and amphotericin were dissolved in DMF in 1 mg/mL. Econazole nitrate and Nystatin ethanol amide (salt) were dissolved in PBS to achieve 1 mg/mL.
(§3) Antibiotic medium 19 was sterilized in autoclave, after sterilization when the temperature lowered to 45° C. and 1 mL from spore suspension was added. 8 mL from this mixture dispensed to each petri dish.
(§4) On each dish 6 sterile diffusion paper disc were placed, 10 μL from each antibiotic were applied in 10, 15, 20, 25, 30, 35 μg/mL concentrations. Where MIC concentrations were below 10, lower concentrations were used: 2, 5, 7.5 μg/mL
(§5) The petri dishes were incubated overnight at 30° C. The MIC were determined as the lower concentration that inhibition could be visualized.
(§6) Observations. In this diffusion disc assay we measured the minimal concentration applied by each compound needed to inhibit the growth of C. albicans and A. niger. […] Amphotericin B inhibit the growth of C. albicans (16 μg/mL) similarly to Nystatin and Nystatin water soluble.

Candida albicans = assay: as above; type: cell-based; conditions: for Inhibition of Candida albicans (MIC): diffusion paper disc, overnight at 30° C., average of three experiments
Protocol: as §1, §2, §3, §4, §5, §6

Endotoxin testing (LAL) = conditions: standard methods
Protocol: Endotoxin testing (LAL) was performed using standard methods and found to be <30 Eu/mg.

microorganisms = assay: Potency testing, cylinder plate assay, method USP <81>; type: cell-based; conditions: for 1 mg
Description: The terms “antifungal activity” or “potency,” these terms being used interchangeably, refer to the inhibitory effect of an antifungal agent on microorganisms under suitable conditions as measured using a standard analytical method, such as the methods established by the United States Pharmacopeial Convention (USP).
Potency testing is done using a cylinder plate assay using the methods described in U.S. Pharmacopeia, e.g., Pharmacopeial Forum, Vol. 36(6) [November-December 2010] <81> Antibiotics—Microbial Assays, USP 32 page 86 ff.
FIG. 5 is a photo showing the results of potency testing according to method USP/81 of the nystatin ethanol amide product.

hep2 cell line = assay: Toxicity: viability of hep2 cell line after incubation with the compound; type: cell-based; conditions: compared with nystatin
Protocol: Toxicity: Toxicity was tested with hep2 cell line by checking their viability after incubation with the compound. The amount of the compound that corresponds to 50% cell viability is the maximum amount of compound that can be apply on to cell culture.

[1] = diffusion paper disc, overnight at 30° C., average of three experiments

| Compound | Inhibition of Candida albicans (MIC) (Candida albicans) | Inhibition of Aspergillus niger (MIC) (Aspergillus niger; [1]) | also measured |
| --- | --- | --- | --- |
| C[C@@H]1[C@H](O)[C@@H](C)/C=C/C=C/C=C/C=C/C=C/C=C/C=C/[C@H](O[C@@H]2O[C@H](C)[C@@H](O)[C@H](N)[C@@H]2O)C[C@@H]2O[C@](O)(C[C@@H](O)C[C@@H](O)[C@H](O)CC[C@@H](O)C[C@@H](O)CC(=O)O[C@H]1C)C[C@H](O)[C@H]2C(=O)O [Amphotericin, amphotericin B] |  |  | MIC (Aspergillus niger; [1]): 31.5 µg/mL (≈ 34.1 µM) |
| Clc1ccc(COC(Cn2ccnc2)c2ccc(Cl)cc2Cl)cc1 (stereo not drawn) [Econazole, Econazole nitrate] | No inhibition | No inhibition |  |
| C[C@@H]1[C@H](O)[C@@H](C)/C=C/C=C/CC/C=C/C=C/C=C/C=C/[C@H](O[C@@H]2O[C@H](C)[C@@H](O)[C@H](N)[C@@H]2O)C[C@@H]2O[C@](O)(C[C@@H](O)[C@H](O)CC[C@@H](O)C[C@@H](O)C[C@@H](O)CC(=O)O[C@H]1C)C[C@H](O)[C@H]2C(=O)NCCO [Nystatin ethanol amide] |  |  | Endotoxin (LAL) (Endotoxin testing (LAL)): < 30 Eu/mg; MIC (Candida albicans; Candida albicans, read-out: Inhibition of Candida albicans (MIC)): 15.7 µg/mL (≈ 16.2 µM); MIC (Aspergillus niger): 23.6 µg/mL (≈ 24.4 µM); potency (microorganisms): 5500-6500 U; Toxicity (amount of compound corresponding to 50% cell viability) (hep2 cell line): the same or better than the unsalable nystatin |
| C[C@@H]1[C@H](O)[C@@H](C)/C=C/C=C/CC/C=C/C=C/C=C/C=C/C(O[C@H]2O[C@H](C)[C@@H](O)[C@H](N)[C@@H]2O)CC2O[C@](O)(CC(O)C(O)CCC(O)CC(O)CC(O)CC(=O)O[C@H]1C)CC(O)C2C(=O)O (stereo partly drawn) [Nystatin] | 14 µg/mL | 22.5 µg/mL |  |
| Nystatin Methyl ester | 30 µg/mL | No inhibition | Inhibition of Aspergillus niger (MIC) (Aspergillus niger; diffusion paper disc, overnight at 30° C., average of three experiments, listed as Nystatin methyl ester): no observed inhibition |
| Polymixin B | No inhibition | No inhibition |  |
